In the assay the target is Reverse transcriptase (Human immunodeficiency virus 2). The assay can be described thus: Inhibition of purified HIV-2 reverse transcriptase.

As to `O=C(O)c1cc(NS(=O)(=O)c2ccc(-c3ccc(S(=O)(=O)Nc4cc(C(=O)O)c(O)c(S(=O)(=O)O)c4)cc3)cc2)cc(S(=O)(=O)O)c1O`, the IC50 (as a rule, the concentration that inhibits the measured activity by half) is 478 µM.

`Nc1c(S(=O)(=O)O)cc2cc(S(=O)(=O)O)cc(O)c2c1O`: the IC50 was 452 µM.

`O=C(CCCCCCCCC(=O)Nc1cc(S(=O)(=O)O)cc2cc(S(=O)(=O)O)cc(O)c12)Nc1cc(S(=O)(=O)O)cc2cc(S(=O)(=O)O)cc(O)c12` returned an IC50 of 122 µM.

`O=C(O)CCCCCCCCC(=O)Nc1cc(S(=O)(=O)O)cc2cc(S(=O)(=O)O)cc(O)c12` registered an IC50 of 170 µM.
